# Patent KR20140134170A, “신경염증 질환의 예방 또는 치료용 약학 조성물” (이화여자대학교 산학협력단, priority 2013, dated 2014)
# Experiments:
# NF-κB = NF-κB DNA complex formation in LPS-activated BV2 microglia (EMSA); type: cell-based, mouse; settings: LPS 100 ng/ml 3 h, compound 1 h before LPS
# TNF-α [1] = assay: Cerebrospinal fluid TNF-α in LPS systemic inflammation mice (sandwich ELISA); type: in vivo, mouse; settings: vs vehicle
# [2] = Neurological score in ischemic stroke model MCAo/Rep; type: in vivo, rat; settings: 5 mg/kg i.p. once immediately after reperfusion; vs control; P=0.0047
# TNF-α [3] = assay: Serum TNF-α in LPS systemic inflammation mice (sandwich ELISA); type: in vivo, mouse; settings: 3 h after LPS
# TNF-α [4] = assay: TNF-α protein expression in cerebral cortex of LPS systemic inflammation mice (western blot); type: in vivo, mouse; settings: 3 h after LPS, vs vehicle
# p38 = p38 activation in LPS-activated BV2 microglia (western blot, p-p38); type: cell-based, mouse; settings: LPS 100 ng/ml 3 h, compound 1 h before LPS
# TNF-α [5] = assay: TNF-α release from LPS-activated BV2 microglia (sandwich ELISA); type: cell-based, mouse; settings: LPS 100 ng/ml, compound 1 h before LPS
# [6] = system: intracellular reactive oxygen species [세포내 활성산소종 (reactive oxygen species; ROS)]; assay: Intracellular reactive oxygen species in LPS-activated BV2 microglia (H2DCF-DA fluorescence); type: cell-based, mouse
# brain cells [뇌세포] = assay: Brain cell damage in ischemic stroke model MCAo/Rep (Nissl staining); type: in vivo, rat; settings: 5 mg/kg i.p. once immediately after reperfusion; cortex and striatum; 22 h after reperfusion
# IL-6 = IL-6 production by LPS-activated BV2 microglia (sandwich ELISA); type: cell-based, mouse; settings: LPS 100 ng/ml, compound 1 h before LPS
# nitric oxide [산화질소] = assay: Nitric oxide production by LPS-activated BV2 microglia (Griess reaction); type: cell-based, mouse; settings: LPS 100 ng/ml, compound 1 h before LPS
# IL-10 = IL-10 production by LPS-activated BV2 microglia (sandwich ELISA); type: cell-based, mouse; settings: LPS 100 ng/ml, compound 1 h before LPS
# microglia [소교세포] [7] = assay: Microglial activation in ischemic stroke model MCAo/Rep (Iba-1 immunohistochemistry); type: in vivo, rat; settings: 5 mg/kg i.p. once immediately after reperfusion; stroke hemisphere; 22 h after reperfusion; stroke control 138.8±7.4; P<0.01
# microglia [소교세포] [8] = assay: Microglial activation in cerebral cortex of LPS systemic inflammation mice (Iba1 immunofluorescence); type: in vivo, mouse; settings: 3 h after LPS
# ERK = ERK activation in LPS-activated BV2 microglia (western blot, p-ERK); type: cell-based, mouse; settings: LPS 100 ng/ml 3 h, compound 1 h before LPS
# IL-1β = IL-1β protein expression in cerebral cortex of LPS systemic inflammation mice (western blot); type: in vivo, mouse; settings: 3 h after LPS, vs vehicle
# [9] = Brain infarct volume in ischemic stroke model MCAo/Rep (TTC staining); type: in vivo, rat; settings: 5 mg/kg i.p. once immediately after reperfusion, 22 h after reperfusion
# JNK = JNK activation in LPS-activated BV2 microglia (western blot, p-JNK); type: cell-based, mouse; settings: LPS 100 ng/ml 3 h, compound 1 h before LPS
# TNF-α [10] = assay: TNF-α producing cells in ischemic stroke model MCAo/Rep (immunohistochemistry); type: in vivo, rat; settings: 5 mg/kg i.p. once immediately after reperfusion; stroke hemisphere; 22 h after reperfusion; stroke control 648.3±64.70; P<0.05
# AP-1 = AP-1 DNA complex formation in LPS-activated BV2 microglia (EMSA); type: cell-based, mouse; settings: LPS 100 ng/ml 3 h, compound 1 h before LPS
# MK2 = MK2 activation in LPS-activated BV2 microglia (western blot, p-MK2); type: cell-based, mouse; settings: LPS 100 ng/ml 3 h, compound 1 h before LPS
compound,measurement,setting,value
"COc1ccc(S(=O)(=O)N2Cc3ccccc3C[C@@H]2C(=O)NO)cc1 [본 발명의 화합물, (3R)-(+)-[2-(4-메톡시벤젠설포닐)-1,2,3,4-테트라하이드로이소퀴놀린-3-하이드록사메이트]",NF-κB complex formation,NF-κB,감소됨
same,cerebrospinal fluid TNF-α level,TNF-α [1]; 1 mg/kg i.p. daily from 4 days before LPS,통계적으로 의미있는 TNF-α발현 감소
same,cerebrospinal fluid TNF-α level,TNF-α [1]; 5 mg/kg i.p. daily from 4 days before LPS,통계적으로 의미있는 TNF-α발현 감소
same,neurological score (maximum 18),[2],유의적 감소
same,serum TNF-α level,TNF-α [3]; 5 mg/kg i.p. daily from 4 days before LPS 5 mg/kg i.p.,현저히 감소
same,serum TNF-α level,"TNF-α [3]; 1 and 5 mg/kg i.p. daily from 4 days before LPS 5 mg/kg i.p., dose dependence",용량의존적으로 TNF-α수준이 감소
same,TNF-α expression in cerebral cortex,TNF-α [4]; 1 mg/kg i.p.,비이클 투여와 차이가 없었으나
same,decrease of TNF-α expression in cerebral cortex,TNF-α [4]; 5 mg/kg i.p.,40%
same,activated p38,p38,농도 의존적으로 감소함
same,TNF-α production,TNF-α [5],현저하게 감소됨
same,intracellular reactive oxygen species,"[6]; compound at 10 μM or more, compared with control",대조군과 유사한 수준으로 감소됨
same,intracellular reactive oxygen species,[6]; concentration dependence,농도 의존적으로 억제함
same,brain cell damage by stroke,brain cells [뇌세포],극명하게 감소
same,IL-6 production,IL-6,농도 의존적으로 억제됨
same,nitric oxide production,nitric oxide [산화질소],농도 의존적으로 억제됨
same,IL-10 production,IL-10,생성을 증가시키는 것
same,number of activated microglia,microglia [소교세포] [7],47.67±10.73 cells
same,number of activated microglia,"microglia [소교세포] [8]; 1 mg/kg i.p., vs vehicle",비이클 투여와 차이가 없었으나
same,number of activated Iba1-labelled cells (microglia),"microglia [소교세포] [8]; 5 mg/kg i.p., area 500 μm2, control 10.12±1.45, LPS 41.17±2.95, p<0.01 vs vehicle",20.0±3.82
same,activated ERK,ERK,농도 의존적으로 감소함
same,IL-1β expression in cerebral cortex,IL-1β; 1 mg/kg i.p.,비이클 투여와 차이가 없었으나
same,decrease of IL-1β expression in cerebral cortex,IL-1β; 5 mg/kg i.p.,50%
same,infarct volume (infarct volume / whole brain volume × 100),[9]; MCAo/Rep control 29.17%,18.90%
same,decrease of infarct size vs control,[9]; P=0.0452,~35.21%
same,activated JNK,JNK,농도 의존적으로 감소함
same,number of TNF-α producing cells,TNF-α [10],402.8±74.73 cells
same,AP-1 complex formation,AP-1,감소됨
same,activated MK2,MK2,농도 의존적으로 감소함
